Structures can show the parent of a compound that is named as a salt.
Legend:
[1] = target: Vasopressin 1 (V1) receptor (Homo sapiens, UniProt P37288); assay: Vasopressin 1 (V1) receptor binding; settings: platelet membranes from normal subjects; competition vs 1.5 nM 3H-vasopressin; 15 minutes at 30° C.; pH 7.4
human V2 receptor = human V2 receptor (Homo sapiens, UniProt P30518); assay: Vasopressin 2 (V2) receptor binding; settings: membranes of CHO cells expressing human V2 receptor; competition vs 0.5 nM 3H-vasopressin; 2 hours at 22° C.; pH 7.4
human V2 receptor, sequence (P30518 whole entry): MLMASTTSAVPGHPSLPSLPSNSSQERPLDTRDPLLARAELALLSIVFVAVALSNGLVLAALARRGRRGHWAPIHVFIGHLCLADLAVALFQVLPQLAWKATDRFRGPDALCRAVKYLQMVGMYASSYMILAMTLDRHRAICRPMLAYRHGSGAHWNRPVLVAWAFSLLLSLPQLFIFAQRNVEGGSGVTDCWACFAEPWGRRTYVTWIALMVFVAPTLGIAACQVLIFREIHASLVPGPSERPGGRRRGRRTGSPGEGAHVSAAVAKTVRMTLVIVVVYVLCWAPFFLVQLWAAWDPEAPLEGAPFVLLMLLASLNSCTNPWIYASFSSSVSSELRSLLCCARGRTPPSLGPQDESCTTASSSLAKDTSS

Vasopressin 1 (V1) receptor, sequence (P37288 whole entry): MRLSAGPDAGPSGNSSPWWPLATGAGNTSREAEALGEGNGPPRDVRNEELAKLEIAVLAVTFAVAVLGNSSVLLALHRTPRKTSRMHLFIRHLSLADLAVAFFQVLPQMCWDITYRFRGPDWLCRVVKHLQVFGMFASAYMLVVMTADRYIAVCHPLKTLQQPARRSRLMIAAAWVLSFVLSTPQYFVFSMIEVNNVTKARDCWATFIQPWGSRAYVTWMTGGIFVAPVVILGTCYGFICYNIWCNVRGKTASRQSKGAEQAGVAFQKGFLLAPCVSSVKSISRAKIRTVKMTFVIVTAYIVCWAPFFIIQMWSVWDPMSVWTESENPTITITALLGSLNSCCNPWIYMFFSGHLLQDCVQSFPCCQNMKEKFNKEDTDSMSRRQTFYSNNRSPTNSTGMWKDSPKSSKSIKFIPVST

IC50 [1] | IC50 (human V2 receptor) | Compound
1.5 nM | 460 nM | COc1cc(C(=O)N(C)c2ccc(C)cc2OCCCCCC(=O)N2CCN(C)CC2)ccc1NC(=O)c1cccc2[nH]c(CN)nc12 [Example 39-27, 4-(2-Aminomethyl-1H-benzimidazol-4-yl)carbonylamino-3-methoxy-N-methyl-N-[4-methyl-2-[5-(4-methylpiperazin-1-yl)carbonylpent-1-yloxy]phenyl]benzamidetrihydrochloride]
< 1 nM | 380 nM | COc1cc(C(=O)N(C)c2ccc(C)cc2OCCCCCC(=O)N2CCN(C)CC2)ccc1NC(=O)c1cccc2[nH]c(CO)nc12 [Example 39-35, 4-(2-Hydroxymethyl-1H-benzimidazol-4-yl)carbonylamino-3-methoxy-N-methyl-N-[4-methyl-2-[5-(4-methylpiperazin-1-yl)carbonylpent-1-yloxy]phenyl]benzamide dihydrochloride]
0.7 nM |  | COc1cc(C(=O)N(C)c2ccc(C)cc2OCCCCCC(=O)N2CCN(C)CC2)ccc1C(=O)Nc1cccc2[nH]c(C)nc12 [Example 115-71, 3-Methoxy-N-methyl-4-[2-mehtyl-1H-benzimidazol-4-yl]carbamoyl-N-[4-methyl-2-[5-(4-methylpiperazin-1-yl)-carbonylpent-1-yloxy]phenyl]benzamide dihydrochloride]
4.5 nM |  | COc1cc(C(=O)N(C)c2ccc(C)cc2OCCCCCC(=O)N2CCN(C)CC2)ccc1C(=O)Nc1cccc2[nH]c(CN3CCN(C)CC3)nc12 [Example 115-81, 3-Methoxy-N-methyl-N-[4-methyl-2-[5-(4-methylpiperazin-1-yl)carbonylpent-1-yloxy]phenyl]-4-[2-[(4-methyl-piperazin-1-yl)methyl]-1H-benzimidazol-4-yl]-carbamoylbenzamide trihydrochloride]
